{
  "source": "patent US20110059956A1",
  "about": "“THERAPEUTIC AGENT FOR PAIN” (ZERIA PHARMACEUTICAL CO., LTD., priority 2008, published 2011)",
  "key": {"pancreatic cancer": {"system": "pancreatic cancer", "conditions": "Non-Patent Document 15, cited from earlier work"}, "thermal hyperalgesia": {"system": "thermal hyperalgesia", "conditions": "Non-Patent Document 12; cited from earlier work"}, "[1]": {"system": "allodynia in B16-BL6 melanoma cancer pain model", "assay": "cancer pain model (B16-BL6 melanoma transplanted into paw), von Frey pain threshold, single administration", "assay_type": "in vivo, mouse", "conditions": "peroral single administration 100 mg/kg on day 14 after cancer transplantation; FIG. 1", "source_text": "Then, the change in pain threshold was monitored. Compound (A1) was suspended in 0.5% CMC-Na solution before administration."}, "[2]": {"system": "nociceptive pain triggered by formalin", "conditions": "cited from earlier work; for analgesic effect, sole use: Non-Patent Document 11"}, "cancer pain": {"system": "cancer pain", "conditions": "clinical, combination with morphine; Non-Patent Document 10; cited from earlier work"}, "[3]": {"system": "allodynia in B16-BL6 melanoma cancer pain model", "assay": "cancer pain model (B16-BL6 melanoma), von Frey pain threshold, repeated administration", "assay_type": "in vivo, mouse", "conditions": "100 mg/kg orally once a day for eight days from day 7 after cancer transplantation; FIG. 2", "method": "From day 7 after cancer transplantation, compound (A1) or L-365,260 (CCK2 receptor antagonist) (100 mg/kg) was orally administered once a day for eight days repeatedly, and the change in pain threshold was monitored. […] On day 7 after cancer transplantation, allodynia occurred, and a considerable drop in pain threshold occurred on day 14 after cancer transplantation."}, "neuropathic pain": {"system": "neuropathic pain", "conditions": "cited from earlier work"}, "[4]": {"system": "nociceptive pain caused by thermal stimulation", "conditions": "cited from earlier work; for generation of morphine resistance: mouse, thermal stimulation, Non-Patent Documents 5 and 6"}, "[5]": {"system": "nociceptive pain caused by thermal stimulation", "conditions": "Non-Patent Document 7, cited from earlier work"}},
  "note": "Structures can show the parent of a compound that is named as a salt. Where two headings read alike, the source gives them in different places.",
  "data": [
    {"smiles": "Nc1ccn([C@@H]2O[C@H](CO)[C@@H](O)C2(F)F)c(=O)n1", "note": "[gemcitabine hydrochloride]", "values": [
      {"measurement": "pain relief effect", "setting": "pancreatic cancer; pancreatic cancer patients", "result": "excellent pain relief effect"},
      {"measurement": "tumor regression effect", "setting": "pancreatic cancer; pancreatic cancer", "result": "comparatively weak tumor regression effect"}
    ]},
    {"smiles": "Cc1cccc(NC(=O)N[C@@H]2N=C(c3ccccc3)c3ccccc3N(CC(=O)c3ccccc3C)C2=O)c1", "note": "[YM022]", "values": [
      {"measurement": "analgesic effect, sole use, on thermal hyperalgesia", "setting": "thermal hyperalgesia", "result": "an analgesic effect"}
    ]},
    {"smiles": "CCCN(CCC)C(=O)C(CCC(=O)O)NC(=O)c1ccccc1", "note": "(stereo not drawn) [proglumide]", "values": [
      {"measurement": "change in pain threshold / improvement of allodynia", "setting": "[1]", "result": "no effect on improvement of allodynia"},
      {"measurement": "analgesic effect, sole use", "setting": "[2]", "result": "exhibits the analgesic effect"},
      {"measurement": "analgesic effect of morphine on cancer pain", "setting": "cancer pain", "result": "potentiates the analgesic effect of morphine"}
    ]},
    {"smiles": "Cc1cccc(NC(=O)N[C@@H]2N=C(c3ccccc3)c3ccccc3N(C)C2=O)c1", "note": "[L-365,260]", "values": [
      {"measurement": "change in pain threshold / improvement of allodynia", "setting": "[1]", "result": "no effect on improvement of allodynia"},
      {"measurement": "change in pain threshold / improvement of allodynia", "setting": "[3]", "result": "no effect on improvement of allodynia was observed"},
      {"measurement": "analgesic effect of morphine on allodynia", "setting": "neuropathic pain; combination with morphine, Non-Patent Document 9", "result": "potentiates the analgesic effect of morphine"},
      {"measurement": "generation of morphine resistance", "setting": "neuropathic pain; rat neuropathic pain model, Non-Patent Document 4", "result": "suppress generation of morphine resistance"},
      {"measurement": "analgesic effect, single use", "setting": "neuropathic pain; single use, Non-Patent Document 9", "result": "exhibits no analgesic effect"},
      {"measurement": "generation of morphine resistance", "setting": "[4]", "result": "suppress generation of morphine resistance"},
      {"measurement": "analgesic effect, single use", "setting": "[4]; single use, Non-Patent Document 13", "result": "exhibits no analgesic effect"},
      {"measurement": "analgesic effect of morphine on nociceptive pain", "setting": "[5]; combination with morphine", "result": "potentiates the analgesic effect of morphine"},
      {"measurement": "analgesic effect, single use", "setting": "[5]; single use", "result": "exhibits no analgesic effect"},
      {"measurement": "analgesic effect, sole use", "setting": "[2]", "result": "exhibits the analgesic effect"}
    ]},
    {"smiles": "C[C@](Cc1c[nH]c2ccccc12)(NC(=O)OC1[C@H]2C[C@@H]3C[C@@H](C[C@H]1C3)C2)C(=O)NC[C@H](NC(=O)CCC(=O)O)c1ccccc1", "note": "(stereo partly drawn) [CI-988]", "values": [
      {"measurement": "generation of morphine resistance", "setting": "[4]", "result": "suppress generation of morphine resistance"},
      {"measurement": "analgesic effect of morphine on nociceptive pain", "setting": "[2]; combination with morphine, Non-Patent Document 8", "result": "potentiates the analgesic effect of morphine"}
    ]}
  ]
}
